What all share (assay type): cell-based
For assay [1], the system named is PC-3M-Luc-C6 prostate cells. Briefly: In Vitro PC-3M-Luc-C6 Prostate Cell Proliferation Assay in Lipid Reduced Medium. The note with it: Prostate cell, read-out: pIC50 PC-3M-Luc-C6 prostate cell (converted); 10% lipid reduced serum, 96 h, ATP-glow luminescence. How it is done: PC-3M-Luc-C6 prostate cells were obtained from Xenogen Corporation. Cells were maintained in MEM supplemented with 10% Fetal Calf Serum (FCS, Hyclone), 2 mM glutamine, 1 mM sodium pyruvate, 1% BME vitamins (available from for example, Sigma Aldrich), 0.1 mM non Essential Amino Acid and 50 μg/ml Gentamicin. The cells were passaged twice a week.
The next day 10 μl test compound/DMSO diluted in medium was added (3E-5M, 1E-5M, 3E-6M,1E-6M, 3E-7M, 1E-7M, 3E-8M, 1E-8M final concentration). Compounds were tested in duplicate. After 96 h incubation at 37° C., 5% CO2 25 μl ATP-glow mix was added. The plate was incubated for 30 min at 37° C. and luminescence was measured with the Envision.
(§1) Analysis: Determination of pIC50 Values
(§2) pIC50 values were calculated as follows. Raw data generated by the instruments were normalized to % Controlmin values, which were calculated as: % Controlmin=100*(x−mLC)/(mHC−mLC),
(§3) where mLC and mHC are the means of the low control wells and high control wells on the plate, after manual exclusion of outliers. The relation between the % Controlmin values and concentration was fitted to a 4-parameter logistic curve using a non-linear least squares regression method to determine the pIC50 value. Outlying data points were excluded manually to get a correct fit. The pIC50 corresponds to −log 10(IC50), if the IC50 is expressed in molar units (http://www.ncbi.nlm.nih.qovibooks/NBK91994). The IC50 parameter was always determined by non-linear regression, but one or more of the other parameters may have been held fixed on a relevant input value, such as 0 for the bottom values.

The next assay deals with A2780 ovarian cells. Briefly: A2780 Ovarian Cell Proliferation Assay in Lipid Reduced Medium, with and without Palmitate (MTT). The note with it: Homo sapiens, 10% lipid-reduced serum, 96 h. How it is done: The biological assays described below correspond to comparative assays for ovarian cell proliferation.
2500 cells were seeded in a 96-well clear well plate in 200 μL RPM11640 with 10% Fetal Calf Serum (Hyclone), and incubated at 37° C., 5% CO2, Blanks were wells without cells. The next day the culture medium was aspirated and replaced by 160 μL culture medium with 10% Lipid-Reduced Serum (LRS, Hyclone). […] After 96 h incubation, an MTT assay was performed.
2500 cells were seeded in a 96-well clear well plate in 200 μL RPM11640 with 10% Fetal Calf Serum (Hyclone), and incubated at 37° C., 5% CO2. Blanks were wells without cells. The next day the culture medium was aspirated and replaced by 160 μL culture medium with 10% Lipid-Reduced Serum (LRS, Hyclone). 20 μL test compound (at concentrations of 30 μM, 10 μM, 3 μM, 1 μM, 0.30 μM, 0.10 μM, 0.03 μM and 0.01 μM)/DMSO dilution followed by 20 μL ethanol-BSA solution were added to a final concentrations of 0.2% DMSO, 0.2% fatty-acid-free BSA, 0.25% ethanol. After 96 h incubation an MTT assay was performed.
Raw data generated by the instrument were normalized to % Controlmin values, which were calculated as: % Controlmin=100*(x−mLC)/(mHC−mLC)
where mLC and mHC were the means of the low control wells and high control wells on the plate, after manual exclusion of outliers. A plot of Controlmin versus test compound concentration was fitted to a 4-parameter logistic curve using a non-linear least squares regression method.

Assay [2] deals with LNCaP_Vancouver prostate cells. In words: In Vitro LNCaP Vancouver Prostate Cell Proliferation Assay in Lipid Reduced Medium. The following applies: Prostate cell; 10% lipid reduced serum, 96 h, ATP-glow luminescence; read-out: pIC50 LNCaP_Vancouver prostate cell (converted). How it is done: LNCaP_Vancouver prostate cells were obtained from the Vancouver Prostate Cancer Centre.
The next day 10 μl of test compound/DMSO diluted in medium was added (3E-5M, 1E-5M, 3E-6M,1E-6M, 3E-7M, 1E-7M, 3E-8M, 1E-8M final concentration). Compounds were tested in duplicate. After 96 h incubation at 37° C., 5% CO2 25 μl ATP-glow mix was added. The plate was incubated for 30 min at 37° C. and luminescence was measured with the Envision.
as §1, §2, §3

The mark [3] stands for this setting: 25 μM palmitate added (control), read-out: pIC50 With Palmitate (converted).
The mark [4] stands for this setting: no palmitate, read-out: pIC50 Without Palmitate (converted).

Data on 17 molecules can be found in patent US10413545B2, “Imidazolin-5-one derivative useful as FASN inhibitors for the treatment of cancer” (Janssen Pharmaceutica NV, priority 2013, dated 2019).

Where two headings read alike, the source gives them in different places.

Regarding `Cc1cc(-c2ccc3c(cnn3C)c2)ccc1C1=NC(C)(C)C(=O)N1C[C@@H]1CCN(C(=O)C2(C)CC2)C1` [Compound 80, (R)-4,4-dimethyl-2-(2-methyl-4-(1-methyl-1H-indazol-5-yl)phenyl)-1-((1-(1-methylcyclopropanecarbonyl)pyrrolidin-3-yl)methyl)-1H-imidazol-5(4H)-one], the IC50 in assay [1] was 17 nM; in the assay on A2780 ovarian cells (setting [3]), greater than 10000 nM; in the assay on A2780 ovarian cells (setting [4]) it was 45.7 nM.

As for `CC1(C)N=C(c2ccc(-c3cnc4ccccc4c3)cc2F)N(C[C@@H]2CCN(C(=O)C3CC3)C2)C1=O` [Compound 48, (R)-1-((1-(cyclopropanecarbonyl)pyrrolidin-3-yl)methyl)-2-(2-fluoro-4-(quinolin-3-yl)phenyl)-4,4-dimethyl-1H-imidazol-5(4H)-one], the IC50 in assay [2] was 3980 nM; in the assay with A2780 ovarian cells (setting [3]) it was greater than 10000 nM; with A2780 ovarian cells (setting [4]), 537 nM.

Take `Cn1ncc2cc(-c3ccc(C4=NC(C)(C)C(=O)N4C[C@@H]4CCN(C(=O)C5CC5)C4)c(F)c3)ccc21` [Compound 53, (R)-1-((1-(cyclopropanecarbonyl)pyrrolidin-3-yl)methyl)-2-(2-fluoro-4-(1-methyl-1H-indazol-5-yl)phenyl)-4,4-dimethyl-1H-imidazol-5(4H)-one]: the IC50 was 132 nM in assay [1] and 724 nM in assay [2].

Take `CC1(C)N=C(c2ccc(-c3ccc(-c4ccncc4)cc3)cc2F)N(C[C@@H]2CCN(C(=O)C3CC3)C2)C1=O` [Compound 46, (R)-1-((1-(cyclopropanecarbonyl)pyrrolidin-3-yl)methyl)-2-(3-fluoro-4′-(pyridin-4-yl)-[1,1′-biphenyl]-4-yl)-4,4-dimethyl-1H-imidazol-5(4H)-one]: the IC50 in assay [2] was 407 nM; in the assay with A2780 ovarian cells (setting [3]), 9550 nM; with A2780 ovarian cells (setting [4]), 52.5 nM.

As for `Cc1cc(-c2ccc3c(c2)ncn3C)ccc1C1=NC(C)(C)C(=O)N1CC1CN(C(=O)C2(C)CC2)C1` [Compound 83, 4,4-dimethyl-2-(2-methyl-4-(1-methyl-1H-benzo[d]imidazol-5-yl)phenyl)-1-((1-(1-methylcyclopropanecarbonyl)azetidin-3-yl)methyl)-1H-imidazol-5(4H)-one], the IC50 was 42.7 nM in assay [1], greater than 10000 nM in the assay with A2780 ovarian cells (setting [3]) and 25.7 nM with A2780 ovarian cells (setting [4]).

As for `CC1(C)N=C(c2ccc(-c3c[nH]c4ccccc34)cc2F)N(CC2CN(C(=O)C3CC3)C2)C1=O` [Compound 62, 1-((1-(cyclopropanecarbonyl)azetidin-3-yl)methyl)-2-(2-fluoro-4-(1H-indol-3-yl)phenyl)-4,4-dimethyl-1H-imidazol-5(4H)-one], the IC50 was 1200 nM in assay [1] and 776 nM in assay [2].

Regarding `CC1(C)N=C(c2ccc(-c3nc4ccccc4[nH]3)cc2F)N(C[C@@H]2CCN(C(=O)C3CC3)C2)C1=O` [Compound 61, (R)-2-(4-(1H-benzo[d]imidazol-2-yl)-2-fluorophenyl)-1-((1-(cyclopropanecarbonyl)pyrrolidin-3-yl)methyl)-4,4-dimethyl-1H-imidazol-5(4H)-one], the IC50 in assay [2] was 5010 nM.

Regarding `CC1(C)N=C(c2ccc(-c3cccc4ncccc34)cc2F)N(C[C@@H]2CCN(C(=O)C3CC3)C2)C1=O` [Compound 47, (R)-1-((1-(cyclopropanecarbonyl)pyrrolidin-3-yl)methyl)-2-(2-fluoro-4-(quinolin-5-yl)phenyl)-4,4-dimethyl-1H-imidazol-5(4H)-one], the IC50 was 3550 nM in assay [2], roughly 10000 nM with A2780 ovarian cells (setting [3]) and roughly 933 nM with A2780 ovarian cells (setting [4]).

Consider `CC1(C)N=C(c2ccc(-c3ccc4cc(F)ccc4c3)cc2F)N(CC2CN(C(=O)C3CC3)C2)C1=O` [Compound 54, 1-((1-(cyclopropanecarbonyl)azetidin-3-yl)methyl)-2-(2-fluoro-4-(6-fluoronaphthalen-2-yl)phenyl)-4,4-dimethyl-1H-imidazol-5(4H)-one], for which the IC50 in assay [1] was 129 nM; in assay [2], 407 nM.

For `Cn1cc(-c2ccc(-c3ccc(C4=NC(C)(C)C(=O)N4CC4CN(C(=O)C5CC5)C4)c(F)c3)cc2)cn1` [Compound 33, 1-((1-(cyclopropanecarbonyl)azetidin-3-yl)methyl)-2-(3-fluoro-4′-(1-methyl-1H-pyrazol-4-yl)-[1,1′-biphenyl]-4-yl)-4,4-dimethyl-1H-imidazol-5(4H)-one], the IC50 was 2040 nM in assay [2], greater than 10000 nM in the assay with A2780 ovarian cells (setting [3]) and 245 nM in the assay with A2780 ovarian cells (setting [4]).

For `Cc1cc(-c2ccc3cc(F)ccc3c2)ccc1C1=NC(C)(C)C(=O)N1CC1CN(C(=O)C2(C)CC2)C1` [Compound 82], the IC50 in assay [1] is 64.6 nM; in the assay with A2780 ovarian cells (setting [3]), 4370 nM; with A2780 ovarian cells (setting [4]) it was 14.5 nM.

`CC1(C)N=C(c2ccc(-c3ccc4cc(F)ccc4c3)cc2F)N(CC2CN(C(=O)C3(O)CC3)C2)C1=O` [Compound 79, 2-(2-fluoro-4-(6-fluoronaphthalen-2-yl)phenyl)-1-((1-(1-hydroxycyclopropanecarbonyl)azetidin-3-yl)methyl)-4,4-dimethyl-1H-imidazol-5(4H)-one]: the IC50 in assay [1] is 70.8 nM; in the assay with A2780 ovarian cells (setting [3]), greater than 10000 nM; in the assay on A2780 ovarian cells (setting [4]), 123 nM.

Regarding `Cn1cc(-c2ccc(-c3ccc(C4=NC(C)(C)C(=O)N4CC4CN(C(=O)C5(O)CC5)C4)c(F)c3)cc2)cn1` [Compound 81, 2-(3-fluoro-4′-(1-methyl-1H-pyrazol-4-yl)-[1,1′-biphenyl]-4-yl)-1-((1-(1-hydroxycyclopropanecarbonyl)azetidin-3-yl)methyl)-4,4-dimethyl-1H-imidazol-5(4H)-one], the IC50 was 661 nM in assay [1], greater than 10000 nM in the assay with A2780 ovarian cells (setting [3]) and 229 nM in the assay with A2780 ovarian cells (setting [4]).

For the molecule `Cc1cc(-c2ccc3cc(F)ccc3c2)ccc1C1=NC(C)(C)C(=O)N1C[C@@H]1CCN(C(=O)C2(C)CC2)C1` [Compound 86, (R)-2-(4-(6-fluoronaphthalen-2-yl)-2-methylphenyl)-4,4-dimethyl-1-((1-(1-methylcyclopropanecarbonyl)pyrrolidin-3-yl)methyl)-1H-imidazol-5(4H)-one], the results for the IC50 (in assay [1]; with A2780 ovarian cells (setting [3]); in the assay on A2780 ovarian cells (setting [4])) were 6.17 nM, roughly 7760 nM and 3.98 nM, respectively.

For the molecule `CC1(C)N=C(c2ccc(-c3ccc4cccc(F)c4c3)cc2)N(CC2CN(C(=O)C3CC3)C2)C1=O` [Compound 40, 1-((1-(cyclopropanecarbonyl)azetidin-3-yl)methyl)-2-(4-(8-fluoronaphthalen-2-yl)phenyl)-4,4-dimethyl-1H-imidazol-5(4H)-one], the IC50 in assay [2] was 2040 nM; in the assay with A2780 ovarian cells (setting [3]), 5620 nM; in the assay with A2780 ovarian cells (setting [4]), 468 nM.

For the molecule `CC1(C)N=C(c2ccc(-c3nc4ccccc4s3)cc2)N(C[C@@H]2CCN(C(=O)C3CC3)C2)C1=O` [Compound 13, (R)-2-(4-(benzo[d]thiazol-2-yl)phenyl)-1-((1-(cyclopropanecarbonyl)pyrrolidin-3-yl)methyl)-4,4-dimethyl-1H-imidazol-5(4H)-one], the figures for the IC50 (in assay [1]; with A2780 ovarian cells (setting [3]); in the assay with A2780 ovarian cells (setting [4])) were 2090 nM, greater than 10000 nM and 3390 nM, respectively.

On to `Cc1cc(-c2ccc3c(c2)ncn3C)ccc1C1=NC(C)(C)C(=O)N1C[C@@H]1CCN(C(=O)C2(C)CC2)C1` [Compound 85, (R)-4,4-dimethyl-2-(2-methyl-4-(1-methyl-1H-benzo[d]imidazol-5-yl)phenyl)-1-((1-(1-methylcyclopropanecarbonyl)pyrrolidin-3-yl)methyl)-1H-imidazol-5(4H)-one], for which the IC50 was roughly 10.7 nM in assay [1], greater than 10000 nM with A2780 ovarian cells (setting [3]) and 3.89 nM with A2780 ovarian cells (setting [4]).
